{"source": "patent US7767685B2", "about": "“Adenosine A2B receptor antagonists” (King Pharmaceuticals Research and Development, Inc., priority 2006, dated 2010)", "biological_target": "T1, human A3 adenosine receptors (Homo sapiens, UniProt P0DMS8)", "T1 construct": "expressed in transfected cells; host or cells: CHO cells (membranes)", "T1 sequence (P0DMS8 1-318)": "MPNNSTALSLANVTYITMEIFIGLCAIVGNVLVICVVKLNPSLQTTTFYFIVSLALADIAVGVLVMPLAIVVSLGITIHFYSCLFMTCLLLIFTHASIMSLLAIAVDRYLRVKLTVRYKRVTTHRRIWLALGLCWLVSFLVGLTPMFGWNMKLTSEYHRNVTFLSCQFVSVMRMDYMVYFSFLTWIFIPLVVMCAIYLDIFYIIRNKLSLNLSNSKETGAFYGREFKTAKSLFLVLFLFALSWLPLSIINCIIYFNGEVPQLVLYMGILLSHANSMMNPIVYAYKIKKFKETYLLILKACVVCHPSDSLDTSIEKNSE", "assay": "Displacement of [3H]MRE3008F20 binding at human A3 adenosine receptors expressed in CHO cells", "settings": "[3H]MRE3008F20 displacement, n = 3-6 (footnote mark c/d swapped), geometric mean (95% confidence limits), read-out: Ki hA3", "method": "The human adenosine receptors have been transfected in CHO cells according with the method previously described by Klotz et al. (Naunyn-Schmied. Arch Pharm. 1998, 357: 1-9). Briefly, the cells are grown adherently and maintained in Dulbecco's Modified Eagles Medium with nutrient mixture F12 (DMEM/F12) without nucleosides, containing 10% fetal calf serum, penicillin (100 U/mL), streptomycin (100 μg/mL), L-glutamine (2 mM) and Geneticin (G418, 0.2 mg/ml) at 37° C. in 5% CO2/95% air. For membrane preparation the culture medium is removed and the cells are washed with phosphate-buffered saline and scraped off T75 flasks in ice-cold hypo tonic buffer (5 mM Tris HCl, 1 mM EDTA, pH 7.4). […]\nAll new synthesized compounds have been tested to evaluate their affinity to human A1, A2A, A2B and A3 adenosine receptors. […] Non-specific binding is determined in the presence of 10 μM of CHA and this is always ≦10% of the total binding. […] Non-specific binding is determined in the presence of 1 μM ZM 241385 and is about 20% of total binding. […] Bound and free radioactivity are separated by filtering the assay mixture through Whatman GF/B glass fiber filters using a Micro-Mate 196 cell harvester (Packard Instrument Co.). The filter bound radioactivity is counted on a Top Count (efficiency 57%) with Micro-Scint 20. […]", "data": [{"smiles": "CCCn1c(=O)c2[nH]c(-c3cc(C)n(CC(=O)Nc4ccc(C(C)CC)cc4)n3)nc2n(CCC)c1=O", "note": "(stereo not shown) [Example 12, 2-[3-(2,6-Dioxo-1,3-dipropyl-2,3,6,7-tetrahydro-1H-purin-8-yl)-5-methyl-pyrazol-1-yl]-N-(4-sec-butylphenyl)-acetamide]", "values": [{"measurement": "Ki", "value": "> 1000", "unit": "nM"}]}]}
